The source of these data is patent US20250026748A1, “N-(5-SUBSTITUTED-[(1,3,4-THIADIAZOLYL) OR (THIAZOLYL)])(SUBSTITUTED)CARBOXAMIDE COMPOUNDS AND USE THEREOF FOR INHIBITING HUMAN POLYMERASE THETA” (Repare Therapeutics Inc., priority 2021, published 2025).

Usually IC50 stands for the point on the concentration scale where inhibition reaches its midpoint. Lower therefore signals higher potency.

The test has as its target PolQ ATPase enzyme (1-894) (Homo sapiens (Human), UniProt O75417). Description: Polθ ATPase enzymatic assay (0.5 nM enzyme concentration), ADP-Glo. The class given is biochemical. Conditions: average IC50; 0.5 nM PolQ ATPase enzyme (1-894). The method, boiled down: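 Enzyme (0.5 nM) pre-incubated 15 min at rt with 10-point inhibitor series in 50 mM Tris pH 7.5, 10% glycerol, 5 mM DTT, 10 mM MgCl2, 0.1 mg/ml BSA; reaction started with 20 nM fork DNA and 100 μM ATP, run 180 min at rt. ADP-Glo luminescence; IC50 from 4-parameter variable-slope fit.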
On the technique in general: ADP-Glo turns the ADP formed in a reaction into a luminescent signal.

The structures appear in SMILES notation.

Chain of PolQ ATPase enzyme (1-894) (O75417 1-894): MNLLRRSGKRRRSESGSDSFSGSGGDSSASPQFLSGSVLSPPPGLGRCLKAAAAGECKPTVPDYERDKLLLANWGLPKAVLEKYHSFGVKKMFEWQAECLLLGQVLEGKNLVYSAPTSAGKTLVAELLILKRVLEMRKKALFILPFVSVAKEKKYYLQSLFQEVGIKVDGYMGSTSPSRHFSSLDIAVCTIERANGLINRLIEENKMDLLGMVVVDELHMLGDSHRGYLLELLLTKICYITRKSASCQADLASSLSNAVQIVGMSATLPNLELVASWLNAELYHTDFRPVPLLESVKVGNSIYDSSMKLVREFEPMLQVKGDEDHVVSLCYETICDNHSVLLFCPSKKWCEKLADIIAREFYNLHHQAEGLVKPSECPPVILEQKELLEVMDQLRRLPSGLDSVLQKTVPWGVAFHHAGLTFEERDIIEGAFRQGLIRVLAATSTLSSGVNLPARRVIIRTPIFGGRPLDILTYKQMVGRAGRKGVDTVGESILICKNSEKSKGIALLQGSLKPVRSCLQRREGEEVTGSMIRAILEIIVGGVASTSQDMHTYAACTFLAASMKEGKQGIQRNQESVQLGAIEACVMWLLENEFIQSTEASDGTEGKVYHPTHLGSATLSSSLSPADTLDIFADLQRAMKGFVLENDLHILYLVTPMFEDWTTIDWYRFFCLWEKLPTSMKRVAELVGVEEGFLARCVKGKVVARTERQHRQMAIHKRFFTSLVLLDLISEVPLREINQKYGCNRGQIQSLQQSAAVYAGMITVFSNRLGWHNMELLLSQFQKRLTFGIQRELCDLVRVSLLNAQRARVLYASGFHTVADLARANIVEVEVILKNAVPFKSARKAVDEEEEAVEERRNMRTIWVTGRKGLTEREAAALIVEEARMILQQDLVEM

`COc1cnc(C(F)F)cc1-c1cnccc1C(=O)Nc1nnc(C2C[C@H]2c2ccc(C#N)nc2)s1` (stereo partly shown) [Compound 266] registered an IC50 of 4.4 nM.

The compound `COc1cnc(C(F)F)cc1-c1cc(C#CC2CCOCC2)ncc1C(=O)Nc1nnc(C#CC2CC2)s1` [Compound 268, N-(5-(cyclopropylethynyl)-1,3,4-thiadiazol-2-yl)-2′-(difluoromethyl)-5′-methoxy-6-((tetrahydro-2H-pyran-4-yl)ethynyl)-[4,4′-bipyridine]-3-carboxamide] yielded an IC50 of 0.28 nM.

With `C#Cc1cc(-c2cc(C(F)F)ncc2OC)c(C(=O)Nc2nnc(C#CC3CC3)s2)cn1` [Compound 269], the IC50 amounted to 0.38 nM. The IC50 values of the last two compounds are within 1.5-fold of each other.

`COc1cnc(C(F)F)cc1-c1cc(C2CCOCC2)ncc1C(=O)Nc1nnc(C#CC2CC2)s1` [Compound 270] returned an IC50 of 9.9 nM.

Compound `COc1cnc(C(F)F)cc1-c1cc(Oc2cnn(C)c2)ncc1C(=O)Nc1nnc(C#CC2CC2)s1` [Compound 271] yielded an IC50 of 0.64 nM.

Regarding `COc1cnc(C(F)F)cc1-c1cc(CO)ncc1C(=O)Nc1nnc(C#CC2CC2)s1` [Compound 272], the IC50 was 1.2 nM.

Compound `COc1cnc(Cl)cc1-c1cnccc1C(=O)Nc1nnc(C2C[C@H]2c2ccc(C#N)cc2O)s1` (stereo partly shown) [Compound 273] came in with an IC50 of 1.8 nM.

As to `COc1cnc(C(F)F)cc1-c1cnccc1C(=O)Nc1nnc([C@@H]2C[C@H]2c2ccc(C#N)cc2)s1` [Compound 274], the midpoint of inhibition, the IC50, lay at 0.51 nM.

Compound `COc1cnc(C(F)F)cc1-c1cnccc1C(=O)Nc1nnc([C@H]2C[C@@H]2c2ccc(C#N)cc2)s1` [Compound 275] showed an IC50 of 3.1 nM.

`COc1cnc(C(F)F)cc1-c1cc(N(C)C(C)=O)ccc1C(=O)Nc1nnc(C#CC2CC2)s1` [Compound 276] came in with an IC50 below 0.25 nM.

For the compound `COc1cnc(Cl)cc1-c1cc(N2CCC(O)C2=O)ccc1C(=O)Nc1nnc(C#CC2CC2)s1` (stereo not shown) [Compound 277], the half-maximal inhibitory concentration (IC50) was found to be 3.2 nM. This lies in the single-digit nanomolar range.

`COc1cnc(C(F)F)cc1-c1cc(C)ncc1C(=O)Nc1nnc(C#CC2CC2)s1` [Compound 278] gave a half-inhibitory concentration (IC50) below 0.25 nM.

`Cc1cnc(C(F)F)cc1-c1cnccc1C(=O)Nc1nnc(C#CC2CC2)s1` [Compound 279] returned an IC50 of 1.5 nM.

As to `COc1cnc(C(F)F)cc1-c1cc(-c2ccn(C)n2)ccc1C(=O)Nc1nnc(C#CC2CC2)s1` [Compound 280], the IC50 is below 0.25 nM.

`COc1ccc(C(F)(F)F)cc1-c1cc(N2CCN(C)C2=O)ncc1C(=O)Nc1nnc(C#CC2CC2)s1` [Compound 281] had an IC50 of 20 nM.

`COc1cnc(C(F)F)cc1-c1cc(C2CCN(C)C2=O)ccc1C(=O)Nc1nnc(C#CC2CC2)s1` (stereo not shown) [Compound 282] displayed an IC50 of 0.26 nM.

Take `COc1cnc(C(F)F)cc1-c1cc(C#CC2(O)CCOCC2)ccc1C(=O)Nc1nnc(C#CC2CC2)s1` [Compound 283]: the IC50 was below 0.25 nM.

For the compound `COc1cnc(C(F)F)cc1-c1cc(C2=CCOCC2)ncc1C(=O)Nc1nnc(C#CC2CC2)s1` [Compound 284], the IC50 came out at 5.6 nM. This lies in the single-digit nanomolar range.

As for `COc1cnc(C(F)F)cc1-c1cc(N2CCCC2=O)ncc1C(=O)Nc1nnc(C#CC2CC2)s1` [Compound 285], the IC50 was found to be 4.3 nM.

Compound `COc1cnc(C(F)F)cc1-c1cc(N(C)C)ncc1C(=O)Nc1nnc(C#CC2CC2)s1` [Compound 286] gave a 50% inhibitory concentration (IC50) of 21 nM. This IC50 is about 4.9-fold higher than that of the compound before.

For `COc1cnc(Cl)cc1-c1cnccc1C(=O)Nc1nnc([C@@H]2C[C@H]2c2ccc(C#N)c(C)c2)s1` [Compound 287], the IC50 was 0.93 nM.

Compound `COc1cnc(Cl)cc1-c1cc(C#CC2(O)CCS(=O)(=O)CC2)ccc1C(=O)Nc1nnc(C#CC2CC2)s1` [Compound 288] gave a half-maximal inhibitory concentration (IC50) below 0.25 nM.

The compound `COc1cnc(C(F)F)cc1-c1cc(Cl)ncc1C(=O)Nc1ncc(C#CC2CC2)s1` [Compound 289] showed an IC50 of 0.88 nM. That is a sub-nanomolar value.

Take `COc1ccc(C(F)(F)F)cc1-c1cc(N2CCCC2=O)ncc1C(=O)Nc1nnc(C#CC2CC2)s1` [Compound 290]: the midpoint of inhibition, the IC50, lay at 7.3 nM.

Take `COc1cnc(C(F)F)cc1-c1cc(Cl)ncc1C(=O)Nc1nnc(C#CC2CC2)s1` [Compound 291]: 0.35 nM corresponded to half-maximal inhibition (IC50).

Compound `COc1ccc(C(F)F)cc1-c1cc(C(=O)N(C)C)ncc1C(=O)Nc1nnc(C#CC2CC2)s1` [Compound 293] had an IC50 below 0.25 nM.

In the case of `COc1cnc(Cl)cc1-c1cc(N(C)C(C)=O)ccc1C(=O)Nc1nnc(C#CC2CC2)s1` [Compound 294], half-maximal inhibition (IC50) required 0.29 nM. This lies in the sub-nanomolar range.

Turning to `COc1cnc(Cl)cc1-c1cc(N2CCN(C)C2=O)ccc1C(=O)Nc1nnc(C#CC2CC2)s1` [Compound 295], the IC50 stood at 2.7 nM.

In turn, `COc1ccc(C(F)(F)F)cc1-c1cc(-c2cnn(C)c2)ncc1C(=O)Nc1nnc(C#CC2CC2)s1` [Compound 296] registered an IC50 of 1.6 nM.

As for `COc1ccc(C(F)(F)F)cc1-c1cc(C2CCN(C)C2=O)ncc1C(=O)Nc1nnc(C#CC2CC2)s1` (stereo not shown) [Compound 297], half-maximal inhibition (IC50) was put at 0.69 nM. This IC50 is about 2.3-fold lower than that of the compound before.

In the case of `COc1cnc(Cl)cc1-c1cc(-c2n[nH]cc2C)ccc1C(=O)Nc1nnc(C#CC2CC2)s1` [Compound 298], the IC50 was 0.8 nM.

Regarding `Cc1cnc(Cl)cc1-c1cnccc1C(=O)Nc1nnc(C#CC2CC2)s1` [Compound 299], 0.6 nM corresponded to half-maximal inhibition (IC50).

`COc1cnc(Cl)cc1-c1cc(-c2cn(C)nn2)ccc1C(=O)Nc1nnc(C#CC2CC2)s1` [Compound 300] registered an IC50 of 0.5 nM.

`COc1cnc(C(F)F)cc1-c1cc(Oc2nccs2)ccc1C(=O)Nc1nnc(C#CC2CC2)s1` [Compound 301] came in with an IC50 below 0.25 nM.

`COc1cnc(Cl)cc1-c1cc(Oc2nccs2)ccc1C(=O)Nc1nnc(C#CC2CC2)s1` [Compound 302] showed an IC50 of 0.35 nM.

For the compound `COc1cnc(C(F)F)cc1-c1cnccc1C(=O)Nc1nnc([C@@H]2C[C@H]2c2ccc(C#N)cc2)s1` [Compound 303], the IC50 was 1.1 nM.

As for `COc1cnc(Cl)cc1-c1cnccc1C(=O)Nc1nnc(C2C[C@H]2c2ccc(C#N)cc2OC)s1` (stereo partly shown) [Compound 304], the concentration for half-maximal inhibition (IC50) was 13 nM.

`COc1ccc(C(F)(F)F)cc1-c1cnccc1C(=O)Nc1nnc(C#CC2CC2(C)C)s1` (stereo not shown) [Compound 306]: 0.56 nM corresponded to half-maximal inhibition (IC50).

The compound `COc1cnc(Cl)cc1-c1cc(-c2ccn(C)n2)ccc1C(=O)Nc1nnc(C#CC2CC2)s1` [Compound 307] had an IC50 below 0.25 nM.

In the case of `COc1ccc(C(F)(F)F)cc1-c1cc(-c2ccn(C)n2)ncc1C(=O)Nc1nnc(C#CC2CC2)s1` [Compound 308], the midpoint of inhibition, the IC50, lay at 0.42 nM.

As for `COc1ccc(C(F)(F)F)cc1-c1cc(-c2ccn(C)n2)ncc1C(=O)Nc1nnc(C#CC2CC2)s1` [Compound 309], the IC50 worked out at 0.99 nM. Against the preceding compound, the IC50 is about 2.4-fold higher.

Compound `COc1cnc(Cl)cc1-c1cc(CS(C)(=O)=O)ccc1C(=O)Nc1nnc(C#CC2CC2)s1` [Compound 310] displayed an IC50 of 4.4 nM.

`COc1cnc(Cl)cc1-c1cc(N2CCCS2(=O)=O)ccc1C(=O)Nc1nnc(C#CC2CC2)s1` [Compound 311]: the IC50 is 8.1 nM. Against the preceding compound, the IC50 is about 1.8-fold higher.

Compound `COc1cnc(Cl)cc1-c1cc(-c2cn[nH]c2)ccc1C(=O)Nc1nnc(C#CC2CC2)s1` [Compound 312] gave an IC50 of 0.94 nM.

As for `COc1cnc(C(F)F)cc1-c1cc(C#N)ncc1C(=O)Nc1nnc(C#CC2CC2)s1` [Compound 313], half-maximal inhibition (IC50) was put at 0.87 nM.

`COc1cnc(Cl)cc1-c1cn2cc(C(=O)N(C)C)nc2cc1C(=O)Nc1nnc(C#CC2CC2)s1` [Compound 314] returned an IC50 of 0.49 nM. This IC50 is about 1.8-fold lower than that of the compound before.

As to `COc1cnc(C(F)F)cc1-c1cn2cc(C(=O)N(C)C)nc2cc1C(=O)Nc1nnc(C#CC2CC2)s1` [Compound 315], the IC50 was determined as 4.5 nM.

Consider `COc1cnc(C(F)F)cc1-c1ccncc1C(=O)Nc1nnc(C#CC2CC2)s1` [Compound 316], for which the IC50 came out at 1.6 nM.

Regarding `CN(C)C(=O)Cn1cc(-c2cc(C(F)F)ccc2Cl)c(C(=O)Nc2nnc(C#CC3CC3)s2)cc1=O` [Compound 317], the IC50 was below 0.25 nM.

As for `COc1cnc(Cl)cc1-c1cnccc1C(=O)Nc1nnc(C2C[C@H]2c2ccc(C#N)nc2)s1` (stereo partly shown) [Compound 318], the IC50 was 4.8 nM.

The compound `Cn1cc(-c2cc(Cl)ncc2OC(F)F)c(C(=O)Nc2nnc(C#CC3CC34CC4)s2)cc1=O` (stereo not shown) [Compound 320] displayed an IC50 below 0.25 nM.

Turning to `COc1ccc(C(F)F)cc1-c1cc(C#N)ncc1C(=O)Nc1nnc(C#CC2CC2)s1` [Compound 321], the IC50 came out at 0.41 nM.

Turning to `COc1cnc(C(F)F)cc1-c1cn(C)c(=O)cc1C(=O)Nc1nnc(C2C[C@H]2c2ccc(C#N)cc2)s1` (stereo partly shown) [Compound 322], inhibition was half-maximal at 1.9 nM (IC50).

On to `C#C[C@@H]1CC1c1nnc(NC(=O)c2ccncc2-c2cc(C(F)F)ncc2OC)s1` (stereo partly shown) [Compound 323], for which 4.5 nM corresponded to half-maximal inhibition (IC50).

Regarding `COc1ccc(C(F)F)cc1-c1cn2cc(C(=O)N(C)C)nc2cc1C(=O)Nc1nnc(C#CC2CC2)s1` [Compound 324], the IC50 amounted to 0.4 nM.

Regarding `COc1cc(N2CCOCC2)c(C(F)(F)F)cc1-c1cnccc1C(=O)Nc1nnc(C#CC2CC2)s1` [Compound 325], the IC50 is below 0.25 nM.

`COc1cnc(Cl)cc1-c1cncc(F)c1C(=O)Nc1nnc(C#CC2CC2)s1` [Compound 327] came in with an IC50 of 4.1 nM.

Consider `COc1ccc(C(F)F)cc1-c1cn2ncnc2cc1C(=O)Nc1nnc(C#CC2CC2)s1` [Compound 328], for which 3.1 nM corresponded to half-maximal inhibition (IC50).

`COc1ccc(C(F)(F)F)nc1-c1cnccc1C(=O)Nc1nnc(C#CC2CC2)s1` [Compound 329] returned a 50% inhibitory concentration (IC50) of 4.1 nM. This IC50 and that of the compound before are within 1.5-fold of each other.

As to `Cc1nc(Cn2cc(-c3cc(C(F)(F)F)ccc3Cl)c(C(=O)Nc3nnc(C#CC4CC4)s3)cc2=O)cs1` [Compound 331], half-maximal inhibition (IC50) was put at 24 nM.

With `COc1cnc(Cl)cc1-c1cn(Cc2csc(C)n2)c(=O)cc1C(=O)Nc1nnc(C#CC2CC2)s1` [Compound 332], the IC50 is 15 nM.

`COc1cnc(Cl)cc1-c1cn(Cc2nccs2)c(=O)cc1C(=O)Nc1nnc(C#CC2CC2)s1` [Compound 333] returned a concentration for half-maximal inhibition (IC50) of 3.8 nM.

`COc1cnc(Cl)nc1-c1cn(C)c(=O)cc1C(=O)Nc1nnc(C#CC2CC2)s1` [Compound 335] displayed an IC50 of 4.3 nM.

`COc1ccc(C(F)(F)F)cc1-c1cn(C)c(=O)cc1C(=O)Nc1nnc(C#CC2CCCOC2)s1` (stereo not shown) [Compound 336] registered an IC50 of 33 nM.
